Active and inactive are the calls of the source. The rule behind the calls is not given here.
Legend:
[1] = Resistance index, ratio of IC50 for antiproliferative activity against human A2780T cells assessed as reduction in cell viability measured after 48 hrs by MTT assay to IC50 for antiproliferative activity against human A2780S cells assessed as reduction in cell viability measured after 48 hrs by MTT assay; assay type: functional
A2780S = assay: Antiproliferative activity against human A2780S cells assessed as reduction in cell viability measured after 48 hrs by MTT assay; assay type: functional, cell-based
A2780/Taxol [2] = assay: Inhibition of colony formation in human A2780T cells assessed as decrease in colonies at 100 nM measured after 24 hrs by photographic imaging analysis; assay type: functional, cell-based
B16-F10 [3] = assay: Antitumor activity against mouse B16-F10 cells inoculated in BALB/c mouse assessed as tumor growth inhibition at 10 mg/kg, ip qd for 14 days by caliper method relative to control; assay type: functional; conditions: 336 h, time 14 day, read-out: TGI
A2780/Taxol [4] = assay: Antiproliferative activity against human A2780T cells assessed as reduction in cell viability measured after 48 hrs by MTT assay; assay type: functional, cell-based
MCF7 [5] = assay: Induction of apoptosis in human MCF7 cells assessed as early apoptotic cells at 10 nM measured after 48 hrs by annexinV-FITC/propidium iodide staining based flow cytometry (reference value: 1.89 %); assay type: functional
B16-F10 [6] = assay: Antimigratory activity in mouse B16-F10 cells assessed as inhibition of cell migration by measuring wound closure at 20 nM measured after 24 hrs (reference value: 51.92 +/- 2.02 %); assay type: functional; design: scale not given: the % may be the effect or the level left
MCF7 [7] = assay: Cell cycle analysis in human MCF7 cells assessed as accumulation at S phase at 10 nM measured after 48 hrs by RnaseA/propidium iodide staining based flow cytometry (reference value: 27.46 %); assay type: functional
[8] = Acute toxicity in BALB/c mouse inoculated with mouse B16-F10 cells assessed as effect on liver at 15 to 30 mg/kg, ip qd for 14 days by hematoxylin and eosin staining based analysis; assay type: organism-based; conditions: in vivo, 336 h, dose 15-30 mg/kg, time 14 day
B16-F10 [9] = assay: Antimigratory activity in mouse B16-F10 cells assessed as inhibition of cell migration by measuring wound closure at 5 nM measured after 24 hrs (reference value: 51.92 +/- 2.02 %); assay type: functional; design: scale not given: the % may be the effect or the level left
MCF7 [10] = assay: Induction of apoptosis in human MCF7 cells assessed as live cells at 10 nM measured after 48 hrs by annexinV-FITC/propidium iodide staining based flow cytometry (reference value: 88.5 %); assay type: functional
MCF7 [11] = assay: Induction of apoptosis in human MCF7 cells assessed as late apoptotic cells at 10 nM measured after 48 hrs by annexinV-FITC/propidium iodide staining based flow cytometry (reference value: 5.99 %); assay type: functional
MCF7 [12] = assay: Cell cycle analysis in human MCF7 cells assessed as accumulation at G2 phase at 5 nM measured after 48 hrs by RnaseA/propidium iodide staining based flow cytometry (reference value: 17.03 %); assay type: functional
MCF7 [13] = assay: Antiproliferative activity against human MCF7 cells assessed as reduction in cell viability measured after 48 hrs by MTT assay; assay type: functional, cell-based
MCF7 [14] = assay: Induction of apoptosis in human MCF7 cells assessed as live cells at 20 nM measured after 48 hrs by annexinV-FITC/propidium iodide staining based flow cytometry (reference value: 88.5 %); assay type: functional
MCF7 [15] = assay: Induction of apoptosis in human MCF7 cells assessed as late apoptotic cells at 20 nM measured after 48 hrs by annexinV-FITC/propidium iodide staining based flow cytometry (reference value: 5.99 %); assay type: functional
B16-F10 [16] = assay: Antimigratory activity in mouse B16-F10 cells assessed as inhibition of cell migration measured after 24 hrs; assay type: functional, cell-based; conditions: dose 5-20 nM
B16-F10 [17] = assay: Antimigratory activity in mouse B16-F10 cells assessed as inhibition of cell migration by measuring wound closure at 10 nM measured after 24 hrs (reference value: 51.92 +/- 2.02 %); assay type: functional; design: scale not given: the % may be the effect or the level left
MCF7 [18] = assay: Cell cycle analysis in human MCF7 cells assessed as accumulation at S phase at 5 nM measured after 48 hrs by RnaseA/propidium iodide staining based flow cytometry (reference value: 27.46 %); assay type: functional
MCF7 [19] = assay: Induction of apoptosis in human MCF7 cells assessed as late apoptotic cells at 5 nM measured after 48 hrs by annexinV-FITC/propidium iodide staining based flow cytometry (reference value: 5.99 %); assay type: functional
[20] = Binding affinity to immobilized pig brain tubulin assessed as equilibrium dissociation constant by SPR assay; assay type: tissue-based, Sus scrofa
Sus scrofa = organism: Sus scrofa; assay: (§1) Inhibition of pig brain tubulin polymerization by spectrophotometric method; assay type: tissue-based
[21] = as §1; assay type: tissue-based, Sus scrofa
MCF7 [22] = assay: Induction of apoptosis in human MCF7 cells assessed as early apoptotic cells at 5 nM measured after 48 hrs by annexinV-FITC/propidium iodide staining based flow cytometry (reference value: 1.89 %); assay type: functional
[23] = Acute toxicity in BALB/c mouse inoculated with mouse B16-F10 cells assessed as effect on kidney at 15 to 30 mg/kg, ip qd for 14 days by hematoxylin and eosin staining based analysis; assay type: organism-based; conditions: in vivo, 336 h, dose 15-30 mg/kg, time 14 day
MCF7 [24] = assay: Cell cycle analysis in human MCF7 cells assessed as accumulation at G1 phase at 20 nM measured after 48 hrs by RnaseA/propidium iodide staining based flow cytometry (reference value: 53.68 %); assay type: functional
MCF7 [25] = assay: Cell cycle analysis in human MCF7 cells assessed as accumulation at G2 phase at 10 nM measured after 48 hrs by RnaseA/propidium iodide staining based flow cytometry (reference value: 17.03 %); assay type: functional
MCF7 [26] = assay: Induction of apoptosis in human MCF7 cells assessed as necrotic cells at 10 nM measured after 48 hrs by annexinV-FITC/propidium iodide staining based flow cytometry (reference value: 2.62 %); assay type: functional
A2780/Taxol [27] = assay: Inhibition of colony formation in human A2780T cells assessed as decrease in colonies measured after 24 hrs by photographic imaging analysis; assay type: functional, cell-based; conditions: dose 10-100 nM
B16-F10 [28] = assay: Disruption of microtubule network in mouse […] cells measured after 6 hrs by DAPI staining based immunofluorescence microscopic assay; assay type: cell-based; conditions: dose 10-40 nM
[29] = Acute toxicity in BALB/c mouse inoculated with mouse B16-F10 cells assessed as effect on body weight at 15 mg/kg, ip qd for 14 days; assay type: organism-based; conditions: in vivo, 336 h, time 14 day
MCF7 [30] = assay: Inhibition of colony formation in human MCF7 cells assessed as decrease in colonies measured after 24 hrs by photographic imaging analysis; assay type: functional, cell-based; conditions: dose 0.05-5 µM
MCF7 [31] = assay: Cell cycle analysis in human MCF7 cells assessed as accumulation at G2 phase at 20 nM measured after 48 hrs by RnaseA/propidium iodide staining based flow cytometry (reference value: 17.03 %); assay type: functional
B16-F10 [32] = assay: Antitumor activity against mouse B16-F10 cells inoculated in BALB/c mouse assessed as tumor growth inhibition at 30 mg/kg, ip qd for 14 days by caliper method relative to control; assay type: functional; conditions: 336 h, time 14 day, read-out: TGI
MCF7 [33] = assay: Induction of apoptosis in human MCF7 cells assessed as live cells at 5 nM measured after 48 hrs by annexinV-FITC/propidium iodide staining based flow cytometry (reference value: 88.5 %); assay type: functional
MCF7 [34] = assay: Cell cycle analysis in human MCF7 cells assessed as accumulation at S phase at 20 nM measured after 48 hrs by RnaseA/propidium iodide staining based flow cytometry (reference value: 27.46 %); assay type: functional
MCF7 [35] = assay: Induction of apoptosis in human MCF7 cells assessed as necrotic cells at 5 nM measured after 48 hrs by annexinV-FITC/propidium iodide staining based flow cytometry (reference value: 2.62 %); assay type: functional
B16-F10 [36] = assay: Antiproliferative activity against mouse B16-F10 cells assessed as reduction in cell viability measured after 48 hrs by MTT assay; assay type: functional, cell-based
HeLa = assay: Antiproliferative activity against human HeLa cells assessed as reduction in cell viability measured after 48 hrs by MTT assay; assay type: functional, cell-based
MCF7 [37] = assay: Induction of apoptosis in human MCF7 cells assessed as early apoptotic cells at 20 nM measured after 48 hrs by annexinV-FITC/propidium iodide staining based flow cytometry (reference value: 1.89 %); assay type: functional
MCF7 [38] = assay: Cell cycle analysis in human MCF7 cells assessed as accumulation at G1 phase at 10 nM measured after 48 hrs by RnaseA/propidium iodide staining based flow cytometry (reference value: 53.68 %); assay type: functional
MCF7 [39] = assay: Cell cycle analysis in human MCF7 cells assessed as accumulation at G1 phase at 5 nM measured after 48 hrs by RnaseA/propidium iodide staining based flow cytometry (reference value: 53.68 %); assay type: functional
MCF7 [40] = assay: Induction of apoptosis in human MCF7 cells assessed as necrotic cells at 20 nM measured after 48 hrs by annexinV-FITC/propidium iodide staining based flow cytometry (reference value: 2.62 %); assay type: functional
A549 = assay: Antiproliferative activity against human A549 cells assessed as reduction in cell viability measured after 48 hrs by MTT assay; assay type: functional, cell-based
B16-F10 [41] = assay: Antitumor activity against mouse B16-F10 cells inoculated in BALB/c mouse assessed as tumor growth inhibition at 15 mg/kg, ip qd for 14 days by caliper method relative to control; assay type: functional; conditions: 336 h, time 14 day, read-out: TGI

For `CC(=O)O[C@H]1C(=O)[C@@]2(C)[C@H]([C@H](OC(=O)c3ccccc3)[C@]3(O)C[C@H](OC(=O)[C@H](O)[C@@H](NC(=O)c4ccccc4)c4ccccc4)C(C)=C1C3(C)C)[C@]1(OC(C)=O)CO[C@@H]1C[C@@H]2O` [PACLITAXEL], the “Ratio IC50” value [1] was 421.8, the IC50 (A2780S) was 7.5 nM and the inhibition (A2780/Taxol [2]) was “inactive”. It also gave an inhibition in vivo at 10 mg/kg (B16-F10 [3]) of 88.7% and an IC50 (A2780/Taxol [4]) of 3160 nM.

In the case of `COc1cc(-c2cccc3[nH]c(-c4cccc5c4ccn5C)nc23)cc(OC)c1OC`, the Activity (MCF7 [5]) is reported as 5.12%, the Activity (B16-F10 [6]) is reported as 6.6% and the Activity (MCF7 [7]) is reported as 22.93%. For the same compound, the Activity [8] was “Non-Toxic”, the Activity (B16-F10 [9]) was 29.42% and the Activity (MCF7 [10]) was 84.4%. The Activity (MCF7 [11]) was 28.4%, the Activity (MCF7 [12]) was 13.41% and the Activity (MCF7 [13]) was “Dose-Dependent Effect”. The IC50 (MCF7 [13]; MCF7, 48 h) was 18 nM, the Activity (MCF7 [14]) was 58.9% and the “Ratio IC50” value [1] was 1.6. For the same compound, the Activity (MCF7 [15]) was 34.3%, the inhibition (B16-F10 [16]) was “Dose-Dependent Effect” and the Activity (B16-F10 [17]) was 15.68%. The Activity (MCF7 [18]) was 23.09%, the Activity (MCF7 [19]) was 9.04% and the Kd [20] was 12700 nM. The inhibition (Sus scrofa) was “Dose-Dependent Effect”, the IC50 [21] was 2520 nM and the Activity (MCF7 [22]) was 2.98%. For the same compound, the Activity [23] was “Non-Toxic”, the IC50 (A2780S) was 6.2 nM and the Activity (MCF7 [24]) was 17.16%. For the same compound, the Activity (MCF7 [25]) was 62.8%, the Activity (MCF7 [26]) was 2.12% and the inhibition (A2780/Taxol [27]) was “Dose-Dependent Effect”. For the same compound, the Activity (B16-F10 [28]) was “Dose-Dependent Effect”, the Activity [29] was “Non-Toxic” and the inhibition (MCF7 [30]) was “Dose-Dependent Effect”. The Activity (MCF7 [31]) was 62.16%, the inhibition in vivo at 30 mg/kg (B16-F10 [32]) was 84.3% and the Activity (MCF7 [33]) was 83.7%. The Activity (MCF7 [34]) was 19.63%, the Activity (MCF7 [35]) was 4.26% and the Activity (B16-F10 [36]) was “Dose-Dependent Effect”. For the same compound, the IC50 (B16-F10 [36]; B16-F10, 48 h) was 29 nM, the Activity (HeLa) was “Dose-Dependent Effect” and the IC50 (HeLa) was 68 nM. For the same compound, the Activity (MCF7 [37]) was 4.69%, the Activity (MCF7 [38]) was 13.1% and the Activity (MCF7 [39]) was 62.06%. The Activity (MCF7 [40]) was 2.14%, the Activity (A549) was “Dose-Dependent Effect” and the IC50 (A549; A549, 48 h) was 85 nM. The inhibition in vivo at 15 mg/kg (B16-F10 [41]) was 78.7% and the IC50 (A2780/Taxol [4]) was 9.7 nM.
